Data on seven compounds can be found in ChEMBL document CHEMBL5512673, “Secondary Structure Stabilization of Macrocyclic Antimicrobial Peptides via Cross-Link Swapping” (J Med Chem, 2024).

Converted amounts (≈) assume the structure as drawn. The source made the active and inactive calls. The rule behind the calls is not given here. Bridge positions count the residues as written; N and C are the ends. Square brackets hold non-standard residues; d marks the D form. Peptide text beside a SMILES is read from it. Dab = NCC[C@H](N)C(=O)O; Dap = NC[C@H](N)C(=O)O A value given as a limit tells only on which side of the number the result lay.

The target of series [1] is Trypsin (Homo sapiens, UniProt P07477+P07478+P35030). The series can be described thus: Stability of compound in PBS at […] assessed as trypsin (unknown origin)-mediated drug degradation measured after 3 to 60 mins using TAMRA-labelled compound by HPLC analysis. Format: ADME, protein assay. Conditions: buffer, time 3-60 min.
In series [2] the test system is RAW264.7. Briefly: Anti-inflammatory activity in mouse RAW264.7 cells assessed as reduction in LPS-induced IL-10 production at 50 uM incubated for 24 hrs by ELISA. Format: functional, cell-based.
For series [3], the system named is Escherichia coli. Briefly: Antibacterial activity against Escherichia coli assessed as inhibition of bacterial growth incubated for 24 hrs by nutrient agar plate method. Format: functional.
The test system of series [4] is Bacillus subtilis. The series can be described thus: Antibacterial activity against Bacillus subtilis assessed as inhibition of bacterial growth incubated for 24 hrs by nutrient agar plate method. Format: functional.
Series [5] concerns RAW264.7. Briefly: Cytotoxicity against mouse RAW264.7 cells assessed as reduction in cell viability at 100 uM incubated for 24 hrs by MTS assay. The format is toxicity, cell-based. Conditions: raw264.7, 24 h.
Series [6] in a line: Aggregation property of compound in aqueous solution assessed as critical micelle concentration by dynamic light scattering analysis. Format: physicochemical. Conditions: buffer.
Series [7] has as its system Staphylococcus epidermidis. The series can be described thus: Antibacterial activity against Staphylococcus epidermidis assessed as reduction in bacterial cell viability incubated for 24 hrs by nutrient agar plate method. Format: functional, organism-based.
Series [8] relates to Bacillus subtilis. Briefly: Antibacterial activity against Bacillus subtilis assessed as reduction in bacterial cell viability incubated for 24 hrs by nutrient agar plate method. Format: functional, organism-based.
In series [9] the test system is RAW264.7. Briefly: Anti-inflammatory activity in mouse RAW264.7 cells assessed as reduction in LPS-induced IL-1beta production at 50 uM incubated for 24 hrs by ELISA. Format: functional, cell-based.
In series [10] the test system is Staphylococcus epidermidis. Briefly: Antibacterial activity against Staphylococcus epidermidis assessed as inhibition of bacterial growth incubated for 24 hrs by nutrient agar plate method. Format: functional.
Series [11] concerns Bacillus subtilis. The series can be described thus: Antibacterial activity against Bacillus subtilis ATCC 6051 assessed as aggregation of bacteria into flakes at 2 to 50 uM incubated for 4 hrs by bacterial flocculation assay. The format is functional, organism-based. Conditions: dose 2-50 µM.
The subject of series [12] is RAW264.7. The series can be described thus: Effect on IL-10 release in mouse RAW264.7 cells at 50 uM incubated for 24 hrs by ELISA. The format is functional, cell-based.
Series [13] relates to RAW264.7. The series can be described thus: Upregulation of IL-1beta production in mouse RAW264.7 cells at 50 uM incubated for 24 hrs by ELISA. Format: functional, cell-based.
For series [14], the system named is Escherichia coli. Briefly: Antibacterial activity against Escherichia coli assessed as reduction in bacterial cell viability incubated for 24 hrs by nutrient agar plate method. The format is functional, organism-based.
Series [15] relates to Escherichia coli. Briefly: Antibacterial activity against Escherichia coli NEB 5alpha assessed as aggregation of bacteria into flakes at 2 to 50 uM incubated for 4 hrs by bacterial flocculation assay. The format is functional, organism-based. Conditions: dose 2-50 µM.
Series [16] deals with Micrococcus luteus. Briefly: Antibacterial activity against Micrococcus luteus assessed as reduction in bacterial cell viability incubated for 24 hrs by nutrient agar plate method. Format: functional, organism-based.
Series [17] relates to Micrococcus luteus. The series can be described thus: Antibacterial activity against Micrococcus luteus assessed as inhibition of bacterial growth incubated for 24 hrs by nutrient agar plate method. Format: functional.

Turning to `CN(C)c1ccc2c(-c3ccc(C(=O)N[C@@H](Cc4ccc(O)cc4)C(=O)NCC(=O)N[C@@H](CCCNC(=N)N)C(=O)N[C@@H](CCCCN)C(=O)N[C@@H](CCCCN)C(=O)N[C@@H](CCCNC(=N)N)C(=O)N[C@@H](CCCNC(=N)N)C(=O)N[C@@H](CCC(N)=O)C(=O)N[C@@H](CCCNC(=N)N)C(=O)N[C@@H](CCCNC(=N)N)C(=O)N[C@@H](CCCNC(=N)N)C(=O)O)cc3C(=O)[O-])c3ccc(=[N+](C)C)cc-3oc2c1`, the Stability entry in series [1] is given as “Unstable”.
Consider `CC[C@H](C)[C@@H]1NC(=O)[C@H](CCCNC(=N)N)NC(=O)[C@H](Cc2ccccc2)NC(=O)[C@H](CCCCN)NC(=O)[C@H](Cc2ccccc2)NC(=O)[C@H](CCCNC(=N)N)NC(=O)[C@@H](N)CSSC[C@@H](C(N)=O)NC(=O)[C@H]([C@@H](C)CC)NC(=O)[C@H](C(C)C)NC1=O` (H-CRFKFRIVIC-NH2; disulfide 1-10), for which the outcome in series [2], in series [9], in [11], in series [12], in [13] and in series [15] was Active. Further, the MIC in series [3] was determined as 80 µM (≈ 103 µg/mL); in series [4] it was 100 µM (≈ 128 µg/mL); in series [10] it was 50 µM (≈ 64.1 µg/mL). Also, the Activity entry in series [5] is on record as “Non-Toxic”. Besides, in [6], the CMC was 4.5 µM. Also, the concentration for half-maximal inhibition (IC50) was 8.5 µM in [7], 461 µM in series [8] and 32.2 µM in series [14].
Turning to `CC[C@H](C)[C@@H]1NC(=O)[C@H](CCCNC(=N)N)NC(=O)[C@H](Cc2ccccc2)NC(=O)[C@H](CCCCN)NC(=O)[C@H](Cc2ccccc2)NC(=O)[C@H](CCCNC(=N)N)NC(=O)[C@@H](N)CCC(=O)NCC[C@@H](C(N)=O)NC(=O)[C@H]([C@@H](C)CC)NC(=O)[C@H](C(C)C)NC1=O` (H-ERFKFRIVI[Dab]-NH2; lactam 1-10), the result in series [2] and in series [9] was inactive. Further, the concentration for half-maximal inhibition (IC50) in series [16] was 11.1 µM; in series [7] it was 3.5 µM; in series [8], 15 µM; in series [14], 8.5 µM. Besides, the MIC in series [3] was 40 µM (≈ 51.5 µg/mL); in series [4] it was 60 µM (≈ 77.3 µg/mL); in [10], 20 µM (≈ 25.8 µg/mL); in [17], 80 µM (≈ 103 µg/mL). The Activity result in series [5] is on record as “Non-Toxic”. The CMC in series [6] is more than 100 µM. The outcome in series [11], in [12], in series [13] and in series [15] was Active.
Consider `CC[C@H](C)[C@@H]1NC(=O)[C@H](CCCNC(=N)N)NC(=O)[C@H](Cc2ccccc2)NC(=O)[C@H](CCCCN)NC(=O)[C@H](Cc2ccccc2)NC(=O)[C@H](CCCNC(=N)N)NC(=O)[C@@H](N)CCC(=O)NC[C@@H](C(N)=O)NC(=O)[C@H]([C@@H](C)CC)NC(=O)[C@H](C(C)C)NC1=O` (H-ERFKFRIVI[Dap]-NH2; lactam 1-10), for which the result in series [2], in series [9], in series [11], in series [12], in [13] and in series [15] was Active. For the same compound, the figures for the MIC in series [3], in series [4] and in [10] were 80 µM (≈ 102 µg/mL), 100 µM (≈ 127 µg/mL) and 40 µM (≈ 51 µg/mL), respectively. The Activity result in series [5] is “Non-Toxic”. Besides, the CMC in series [6] was 10.8 µM. The figures for the IC50 in series [7], in [8] and in series [14] were 10.2 µM, 38.5 µM and 41.5 µM, respectively.
On to `CC[C@H](C)[C@@H]1NC(=O)[C@H](CCCNC(=N)N)NC(=O)[C@H](Cc2ccccc2)NC(=O)[C@H](CCCCN)NC(=O)[C@H](Cc2ccccc2)NC(=O)[C@H](CCCNC(=N)N)NC(=O)[C@@H](N)CCNC(=O)CC[C@@H](C(N)=O)NC(=O)[C@H]([C@@H](C)CC)NC(=O)[C@H](C(C)C)NC1=O` (H-[Dab]RFKFRIVIE-NH2; lactam 1-10), for which the result in [2] and in series [9] was inactive. Besides, the half-maximal inhibitory concentration (IC50) is 18 µM in series [16], 3.9 µM in series [7], 15.4 µM in series [8] and 10.7 µM in series [14]. In addition, the MIC in series [3] worked out at 40 µM (≈ 51.5 µg/mL); in series [4], 60 µM (≈ 77.3 µg/mL); in series [10], 20 µM (≈ 25.8 µg/mL); in series [17], 80 µM (≈ 103 µg/mL). In series [5], the Activity entry was “Non-Toxic”. The CMC in [6] is more than 100 µM. In addition, the result in series [11], in series [12], in series [13] and in series [15] was Active.
Take `CC[C@H](C)[C@@H]1NC(=O)[C@H](CCCNC(=N)N)NC(=O)[C@H](Cc2ccccc2)NC(=O)[C@H](CCCCN)NC(=O)[C@H](Cc2ccccc2)NC(=O)[C@H](CCCNC(=N)N)NC(=O)[C@@H](N)CNC(=O)CC[C@@H](C(N)=O)NC(=O)[C@H]([C@@H](C)CC)NC(=O)[C@H](C(C)C)NC1=O` (H-[Dap]RFKFRIVIE-NH2; lactam 1-10): the outcome in series [2], in series [9], in [11], in [12], in [13] and in series [15] was Active. The MIC came to 100 µM (≈ 127 µg/mL) in [3], 100 µM (≈ 127 µg/mL) in series [4] and 40 µM (≈ 51 µg/mL) in series [10]. Besides, the Activity result in series [5] was “Non-Toxic”. Further, the CMC in series [6] is 2.3 µM. Further, the values for the IC50 in [7], in [8] and in series [14] were 7.2 µM, 36.2 µM and 35.9 µM, respectively.
Consider `CC1(C)S[C@@H]2[C@H](NC(=O)[C@H](N)c3ccccc3)C(=O)N2[C@H]1C(=O)O` [AMPICILLIN], for which the half-inhibitory concentration (IC50) came out at 1.1 µM in [16], 8.5 µM in [7], 1 µM in [8] and 1.5 µM in series [14]. For the same compound, the MIC in series [3] was found to be 12.5 µM (≈ 4.37 µg/mL); in series [4] it was 25 µM (≈ 8.74 µg/mL); in series [10] it was 50 µM (≈ 17.5 µg/mL); in series [17] it was 3.1 µM (≈ 1.08 µg/mL).
